Assay results: patent publication US9650405B2, “Modified sophorolipids as oil solubilizing agents” (Polytechnic Institute of New York University, priority 2010, dated 2017)

How the values were obtained:
[1] = Crude oil emulsification activity (turbidity at 610 nm); conditions: emulsifier 1 mg/mL
Procedure: Emulsification activity was assessed using Louisiana Crude, Arabian Light Crude, and Prudhoe Bay Crude as the oil phase. A 2 mL solution with emulsifier concentration of 1 mg/mL was prepared. A crude oil (10 mg) was added to the emulsifier aqueous solution, the mixture was vortexed for one minute and the emulsified mixture was allowed to stand for 20 minutes. Emulsification activity was determined by measuring turbidity of the emulsion mixture in a spectrophotometer at 610 nm. The results obtained using SL-ethyl ester, SL-butyl ester, the natural sophorolipid mixture and Triton X-100 as emulsifiers are expressed as D610 and are listed in Table 8. […] Furthermore, a remarkable improvement in emulsification activity was obtained for SL-butyl ester relative to the natural sophorolipid mixture. These comparative results for emulsification of Louisiana Crude, Arabian Light Crude, and Prudhoe Bay Crude oil phase could not be anticipated by one skilled in the art.

[2] = Crude oil clearing/displacement activity; conditions: 20 μL of 1 mg/mL solution
Procedure: Oil cleaning assays were performed using Louisiana Crude, Arabian Light Crude, and Prudhoe Bay Crude as the oil phase. In one study, the oil clearing/displacement activity of MSLs were assessed using a crude oil layer on top of sea water in order to simulate oil spill type conditions. Sea water (20 mL) was transferred to plastic Petri dishes and 20 μL of a crude oil type was added on top of the water to create an oil layer. Subsequently, a 20 μL aliquot of MSL solution (1 mg/mL) was added dropwise to the top of the oil layer. The instantaneous formation of an oil clearing zone as well as the diameter of the clearing zone was determined as a function of the dispersant used. […] Furthermore, the oil displacement activity of SL-ethyl ester and SL-butyl ester was slightly higher than Triton-X-100 for Arabian Light crude.

[3] = MSL combination lemon oil emulsions, high shear homogenizer; format: physicochemical; conditions: 5 weight % surfactant, 1 weight % lemon oil, one week at 25° C.
Procedure: In addition to testing single MSL emulsification through tracking nanoemulsion stability, MSL combinations were investigated. These emulsions were processed with a high shear homogenizer at 13,500 rpm. One example of this MSL combination formulation included 5 weight % surfactant, 1 weight % lemon oil, and 94% deionized water. The pure form of this formulation included 5 weight % SL-hexyl ester. The combination form of this formulation included 2.5 weight % SL-hexyl ester and 2.5 weight % SL-ethyl ester. […] The size of droplets within this emulsion was 2.5 μm. […] The size of droplets within the combination emulsion was 8.4 nm.

[4] = Lemon oil solubilization, sonication, droplet size by dynamic light scattering; format: physicochemical
Procedure: MSL's used in this example are SL-hexyl ester (16), SL-octyl ester SL (17), and SL-dodecyl ester (18). To test the MSL capacity for lemon oil solubilization, the volume ratio of water to lemon oil, the concentration of surfactant, and the homogenization time (using a sonicator as the means of homogenization) were varied. Concentration of surfactant is calculated on a w/w basis relative to the mass of water being used. To form emulsions, the MSL or other surfactant is first dissolved in the water, oil is added to the solution, and finally the contents of the water/surfactant+oil system is sonicated. Subsequently, the emulsion is allowed to settle for 24 hours at 25° C. before measurements or visual observations are made.
To evaluate the stability of lemon oil solubilization, photographs of emulsions were recorded daily (after the initial 24 hours). Visual observations consisted of assessing solution clarity, extent of creaming and whether oil separation occurs. After selected time periods measurement of emulsion droplet size was performed by dynamic light scattering, which gives an average droplet size in the solution. […] If the emulsion had creamed (separated into two discreet emulsion layers) the average droplet size for each emulsion layer was determined. The results of this study are listed in Table 6, where the first number represents average droplet size in the top emulsion layer and the second represents the average droplet size in the bottom emulsion layer. […] A better performing emulsifier for this study is defined as functioning to form emulsions with smaller average particle size after the aging period.

[5] = lemon oil/water 1/99, sonication 120 sec, 0.5 wt %, 1 Month
[6] = lemon oil/water 5/95, sonication 60 sec, 0.25 weight-%, 1 Month
[7] = lemon oil/water 5/95, sonication 60 sec, 1 weight-%, 1 Month
[8] = lemon oil/water 5/95, sonication 60 sec, 1 weight-%, 1 Week
[9] = lemon oil/water 5/95, sonication 120 sec, 0.25 weight-%, 1 Month
[10] = lemon oil/water 5/95, sonication 120 sec, 0.5 weight-%, 1 Month
[11] = lemon oil/water 5/95, sonication 120 sec, 0.5 weight-%, 1 Week
[12] = lemon oil/water 5/95, sonication 120 sec, 1 weight-%, 1 Month
[13] = lemon oil/water 5/95, sonication 120 sec, 1 weight-%, 1 Week

## CCCCOC(=O)CCCCCCCC=CCCCCCCC(C)OC1OC(CO)C(O)C(O)C1OC1OC(CO)C(O)C(O)C1O (centres unmarked) [Compound 8, SL-Butyl Ester]
[1]; Arabian Crude
  Emulsification activity (D610): 1.77
[1]; Louisiana Crude
  Emulsification activity (D610): 1.50
[1]; Prudhoe Crude
  Emulsification activity (D610): 1.58
[2]; Arabian Light Crude on sea water
  Oil displacement activity (diameter of the clearing zone): 6.7 ± 0.14 cm
[2]; Louisiana Crude on sea water
  Oil displacement activity (diameter of the clearing zone): 8.7 ± 0.35 cm
[2]; Prudhoe Bay Crude on sea water
  Oil displacement activity (diameter of the clearing zone): 7.5 cm

## CCCCCCOC(=O)CCCCCCCC=CCCCCCCC(C)OC1OC(CO)C(O)C(O)C1OC1OC(CO)C(O)C(O)C1O (centres unmarked) [Compound 16, SL-Hexyl Ester]
[3]; 94% deionized water
  size of droplets within the emulsion: 2.5 μm
[3]
  appearance of the emulsion: completely opaque
[4]; lemon oil emulsions, after one month
  average droplet sizes after one month: below 1 μm
[4]; lemon oil/water 1/99, sonication 60 sec, 0.25 weight-%, 1 Month
  Emulsion Droplet Size: 138 nm
[4]; lemon oil/water 1/99, sonication 60 sec, 0.25 weight-%, 1 Week
  Emulsion Droplet Size: 200 nm
[4]; lemon oil/water 1/99, sonication 60 sec, 1 weight-%, 1 Month
  Emulsion Droplet Size: 52 nm
[4]; lemon oil/water 1/99, sonication 60 sec, 1 weight-%, 1 Week
  Emulsion Droplet Size: 22 nm
[4]; lemon oil/water 1/99, sonication 120 sec, 0.25 weight-%, 1 Month
  Emulsion Droplet Size: 105 nm
[4]; lemon oil/water 1/99, sonication 120 sec, 0.25 weight-%, 1 week
  Emulsion Droplet Size: 149 nm
[4]; [5]
  Emulsion Droplet Size, bottom emulsion layer: 82 nm
  Emulsion Droplet Size, top emulsion layer: 287 nm
[4]; lemon oil/water 1/99, sonication 120 sec, 0.5 wt %, 1 Week
  Emulsion Droplet Size: 255 nm
[4]; lemon oil/water 1/99, sonication 120 sec, 1 weight-%, 1 Month
  Emulsion Droplet Size: 26 nm
[4]; lemon oil/water 1/99, sonication 120 sec, 1 weight-%, 1 Week
  Emulsion Droplet Size: 20 nm
[4]; [6]
  Emulsion Droplet Size, bottom emulsion layer: 177 nm
  Emulsion Droplet Size, top emulsion layer: 506 nm
[4]; lemon oil/water 5/95, sonication 60 sec, 0.25 weight-%, 1 week
  Emulsion Droplet Size: 330 nm
[4]; [7]
  Emulsion Droplet Size, bottom emulsion layer: 32 nm
  Emulsion Droplet Size, top emulsion layer: 471 nm
[4]; [8]
  Emulsion Droplet Size, bottom emulsion layer: 112 nm
  Emulsion Droplet Size, top emulsion layer: 313 nm
[4]; [9]
  Emulsion Droplet Size, bottom emulsion layer: 166 nm
  Emulsion Droplet Size, top emulsion layer: 450 nm
[4]; lemon oil/water 5/95, sonication 120 sec, 0.25 weight-%, 1 week
  Emulsion Droplet Size: 325 nm
[4]; [10]
  Emulsion Droplet Size, bottom emulsion layer: 120 nm
  Emulsion Droplet Size, top emulsion layer: 505 nm
[4]; [11]
  Emulsion Droplet Size, bottom emulsion layer: 29 nm
  Emulsion Droplet Size, top emulsion layer: 320 nm
[4]; [12]
  Emulsion Droplet Size, bottom emulsion layer: 25 nm
  Emulsion Droplet Size, top emulsion layer: 518 nm
[4]; [13]
  Emulsion Droplet Size, bottom emulsion layer: 246 nm
  Emulsion Droplet Size, top emulsion layer: 336 nm
